These results are taken from patent US7662854B2, “HIF hydroxylase inhibitors” (ISIS Innovation Limited, priority 2002, dated 2010).

Structures are written as SMILES.

Test [1] has as its system HIF hydroxylase. As to the kind of experiment: capture assay for inhibitors of HIF modification (pVHL capture). It counts as biochemical. The conditions noted are these: result in words; screening at 2 mM of the potential inhibitor, RCC4 cell extract, 100 μM FeCl2. As to the method:
In vitro screening of potential inhibitors of HIF modification was performed using a capture assay. A Gal/HIF-1α/VP16 fusion protein expressing HIF-1α residues 549-582 was prepared by IVTT (see British Application No. 0118952.1) and used as a substrate in the assay. The unlabelled substrate was immunopurified on beads, washed, and aliquots incubated in the presence of RCC4 cell extract, with 100 μM FeCl2 and 2 mM of the potential inhibitor. The inhibitors were either dissolved in DMSO or Tris as indicated. Controls, where no inhibitor but the equivalent amount of DMSO or Tris was added, were also performed. After washing, the beads were assayed for their ability to interact with 35-S labelled pVHL IVTT. Hydroxylation of the fusion protein by HIF hydroxylase present in the cell extract leads to the ability to capture the labelled pVHL and the amount of labelled protein bound to the fusion protein can then be measured to determine relative HIF hydroxylase activity. FIGS. 1 to 5 show HIF hydroxylase activity in the presence of a particular inhibitor relative to that seen in the absence of the inhibitor (the DMSO/Tris control).

Test [2] concerns HIF hydroxylases. Briefly: assays in which the compound replaces 2-oxoglutarate as co-substrate. The class given is biochemical. Particulars: compared with 2-oxoglutarate under analogous conditions. An excerpt:
Another aspect of the invention concerns analogues of 2-oxoglutarate that act as improved (relative to 2-oxoglutarate) co-substrates for the HIF hydroxylases. Such a compound is 3-fluoro 2-oxoglutarate.

As to `O=C(O)CC1CC(=O)N(O)C1=O` (centres unmarked) [Is52, (1-hydroxy-2,5-dioxo-pyrrolidin-3-yl) acetic acid], the “activity as modulator of HIF prolyl hydroxylase” value in test [1] is given as “highly active”. With `O=C(O)CC(F)C(=O)C(=O)O` (centres unmarked) [3-fluoro 2-oxoglutarate, 3-fluoro-2-oxoglutaric acid], the “level of HIF hydroxylation” value in test [2] was “higher level of HIF hydroxylation”.
